Where two headings read alike, the source gives them in different places. Some results are limits rather than exact numbers.

One assay has as its target T1, Lp-PLA2 in human plasma (Homo sapiens, UniProt Q13093).
T1 construct: from tissue; host or cells: pooled human plasma
T1 sequence (Q13093 22-441): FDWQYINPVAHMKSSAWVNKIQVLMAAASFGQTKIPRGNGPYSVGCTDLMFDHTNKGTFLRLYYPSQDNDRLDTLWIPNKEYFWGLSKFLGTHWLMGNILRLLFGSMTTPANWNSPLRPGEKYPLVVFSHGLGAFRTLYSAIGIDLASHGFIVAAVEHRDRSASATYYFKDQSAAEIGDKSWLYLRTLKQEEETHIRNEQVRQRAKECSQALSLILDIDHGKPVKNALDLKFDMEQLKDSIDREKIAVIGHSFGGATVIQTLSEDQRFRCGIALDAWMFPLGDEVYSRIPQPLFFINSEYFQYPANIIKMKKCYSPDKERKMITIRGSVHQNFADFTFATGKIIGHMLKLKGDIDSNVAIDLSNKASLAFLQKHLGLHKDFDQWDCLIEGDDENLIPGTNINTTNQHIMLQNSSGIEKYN
The experiment in a line: Lp-PLA2 human plasma assay (Thio-PAF assay). The assay is classed as biochemical. To be noted: pooled human plasma; read-out: pIC50 values in the thio-PAF assay (converted). An outline of the steps:
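Pooled human plasma preincubated 30 min with compounds, then given substrate mix of 2.5 mM 2-thio-PAF, […] and 3.2 mM NEM (concentrations in substrate solution) in pH 7.4 HEPES/NaCl/CHAPS buffer. Quenched with TFA after 2 min; CPM-thiol fluorescence read at ex 380/em 485 to give pIC50.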

Assay [1] deals with T2, recombinant human Lp-PLA2 (Homo sapiens, UniProt Q13093).
T2 sequence (Q13093 22-441): T1 sequence (Q13093 22-441)
As to the kind of experiment: Recombinant human Lp-PLA2 assay (rhLp-PLA2, PED6 assay). The assay is classed as biochemical. Particulars: upper limit for pIC50 in this assay is 9.3. Summed up:
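Enzyme at 4 nM (or 110 pM) in 50 mM HEPES pH 7.4, 150 mM NaCl, 1 mM CHAPS, preincubated with compound 30 min. PED6 substrate ([…] 5 μM, as printed) then added and reaction run 20 min at room temperature, protected from light. Fluorescence read at ex 480/em 540; pIC50 from curve fitting.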

Where [2] appears, read: read-out: pIC50 values in the PED6 assay (converted).

As to `O=c1nc(OCc2cc(F)c(Oc3ccc(F)c(C(F)(F)F)c3)c(F)c2)cc2n1CCCN2` [Example 93, 8-((3,5-difluoro-4-(4-fluoro-3-(trifluoromethyl)phenoxy)benzyl)oxy)-3,4-dihydro-1H-pyrimido[1,6-a]pyrimidin-6(2H)-one], the IC50 was at most 100 nM on Lp-PLA2 in human plasma; at most 0.501 nM in assay [1] (Table 1, read-out: rhLp-PLA2 (PED6 assay) (pIC50) (converted)); at most 1 nM in assay [1] (setting [2]).

For `N#Cc1cc(COc2cc3n(c(=O)n2)CCCN3)ccc1Oc1ccc(F)c(F)c1` [Example 94, 2-(3,4-difluorophenoxy)-5-(((6-oxo-2,3,4,6-tetrahydro-1H-pyrimido[1,6-a]pyrimidin-8-yl)oxy)methyl)benzonitrile], the IC50 at Lp-PLA2 in human plasma was at most 100 nM; in assay [1] (setting [2]), at most 1 nM.

Consider `CN1CCCn2c1cc(OCc1ccc(Oc3ccc(Cl)nc3)c(F)c1)nc2=O` [Example 95, 8-((4-((6-chloropyridin-3-yl)oxy)-3-fluorobenzyl)oxy)-1-methyl-3,4-dihydro-1H-pyrimido[1,6-a]pyrimidin-6(2H)-one], for which the values for the IC50 (at Lp-PLA2 in human plasma; in assay [1] (setting [2])) were at most 100 nM and at most 1 nM, respectively.

Regarding `CN1CCCn2c1cc(OCc1ccc(Oc3ccc(Cl)c(F)c3)c(C#N)c1)nc2=O` [Example 96, 2-(4-chloro-3-fluorophenoxy)-5-(((1-methyl-6-oxo-2,3,4,6-tetrahydro-1H-pyrimido[1,6-a]pyrimidin-8-yl)oxy)methyl)benzonitrile], the IC50 is at most 100 nM at Lp-PLA2 in human plasma and at most 1 nM in assay [1] (setting [2]).

On to `O=c1nc(OCc2ccc(Oc3ccc(Cl)c(C(F)(F)F)c3)c(F)c2)cc2n1CCCN2` [Example 97, 8-((4-(4-chloro-3-(trifluoromethyl)phenoxy)-3-fluorobenzyl)oxy)-3,4-dihydro-1H-pyrimido[1,6-a]pyrimidin-6(2H)-one], for which the IC50 on Lp-PLA2 in human plasma was at most 100 nM; in assay [1] (setting [2]), at most 1 nM.

As for `CN1CCCn2c1cc(OCc1ccc(Oc3cc(F)cc(C#N)c3)c(F)c1)nc2=O` [Example 98, 3-fluoro-5-(2-fluoro-4-(((1-methyl-6-oxo-2,3,4,6-tetrahydro-1H-pyrimido[1,6-a]pyrimidin-8-yl)oxy)methyl)phenoxy)benzonitrile], the IC50 at Lp-PLA2 in human plasma was at most 100 nM; in assay [1] (setting [2]), at most 1 nM.

On to `O=c1nc(OCc2ccc(F)c(F)c2)cc2n1CCCN2` [Example 99, 8-((3,4-difluorobenzyl)oxy)-3,4-dihydro-1H-pyrimido[1,6-a]pyrimidin-6(2H)-one], for which the IC50 on Lp-PLA2 in human plasma is at most 100 nM; in assay [1] (setting [2]) it was at most 10 nM.

With `O=c1nc(OCc2ccc(Oc3ccc(F)c(C(F)(F)F)c3)cc2)cc2n1CCCN2` [Example 100, 8-((4-(4-fluoro-3-(trifluoromethyl)phenoxy)benzyl)oxy)-3,4-dihydro-1H-pyrimido[1,6-a]pyrimidin-6(2H)-one], the IC50 was at most 100 nM at Lp-PLA2 in human plasma and at most 1 nM in assay [1] (setting [2]).

For the compound `O=c1nc(OCc2ccc(Oc3cccc(C(F)(F)F)c3)c(F)c2)cc2n1CCCN2` [Example 101, 8-((3-fluoro-4-(3-(trifluoromethyl)phenoxy)benzyl)oxy)-3,4-dihydro-1H-pyrimido[1,6-a]pyrimidin-6(2H)-one], the values for the IC50 (at Lp-PLA2 in human plasma; in assay [1] (setting [2])) were at most 100 nM and at most 1 nM, respectively.

For the compound `CN1CCCn2c1cc(OCCc1ccc(Oc3ccc(Cl)c(F)c3)c(F)c1)nc2=O` [Example 102, 8-(4-(4-chloro-3-fluorophenoxy)-3-fluorophenethoxy)-1-methyl-3,4-dihydro-1H-pyrimido[1,6-a]pyrimidin-6(2H)-one], the IC50 at Lp-PLA2 in human plasma is at most 1000 nM; in assay [1] (setting [2]), at most 1 nM.

As to `CN1CCCn2c1cc(OCCc1ccc(Oc3ccc(Cl)c(F)c3)cc1)nc2=O` [Example 103, 8-(4-(4-chloro-3-fluorophenoxy)phenethoxy)-1-methyl-3,4-dihydro-1H-pyrimido[1,6-a]pyrimidin-6(2H)-one], the IC50 on Lp-PLA2 in human plasma is at most 1000 nM; in assay [1] (setting [2]), at most 10 nM.

Take `N#Cc1ccc(Oc2ccc(COc3cc4n(c(=O)n3)CCCN4)cc2C#N)cc1F` [Example 104, 4-(2-cyano-4-(((6-oxo-2,3,4,6-tetrahydro-1H-pyrimido[1,6-a]pyrimidin-8-yl)oxy)methyl)phenoxy)-2-fluorobenzonitrile]: the IC50 at Lp-PLA2 in human plasma was at most 100 nM; in assay [1] (setting [2]) it was at most 1 nM.

With `CN1CCCn2c1cc(OCCc1ccc(Oc3cccc(C(F)(F)F)c3)c(F)c1)nc2=O` [Example 105, 8-(3-fluoro-4-(3-(trifluoromethyl)phenoxy)phenethoxy)-1-methyl-3,4-dihydro-1H-pyrimido[1,6-a]pyrimidin-6(2H)-one], the figures for the IC50 (at Lp-PLA2 in human plasma; in assay [1] (setting [2])) were at most 100 nM and at most 1 nM, respectively.

Consider `N#Cc1ccc(Oc2ccc(COc3cc4n(c(=O)n3)CCCN4)cc2C#N)cc1Cl` [Example 106, 2-chloro-4-(2-cyano-4-(((6-oxo-2,3,4,6-tetrahydro-1H-pyrimido[1,6-a]pyrimidin-8-yl)oxy)methyl)phenoxy)benzonitrile], for which the IC50 is at most 100 nM on Lp-PLA2 in human plasma and at most 10 nM in assay [1] (setting [2]).

Turning to `N#Cc1cc(COc2cc3n(c(=O)n2)CCCN3)ccc1Oc1ccc(Cl)c(C(F)(F)F)c1` [Example 107, 2-(4-chloro-3-(trifluoromethyl)phenoxy)-5-(((6-oxo-2,3,4,6-tetrahydro-1H-pyrimido[1,6-a]pyrimidin-8-yl)oxy)methyl)benzonitrile], the IC50 was at most 100 nM on Lp-PLA2 in human plasma and at most 1 nM in assay [1] (setting [2]).

Regarding `O=c1nc(OCc2cc(F)c(F)c(F)c2)cc2n1CCCN2` [Example 113, 8-(3,4,5-trifluorobenzyloxy)-3,4-dihydro-1H-pyrimido[1,6-a]pyrimidin-6(2H)-one], the figures for the IC50 (on Lp-PLA2 in human plasma; in assay [1] (setting [2])) were at most 100 nM and at most 10 nM, respectively.

Take `O=c1nc(OCc2cc(F)c(Oc3ccc(F)cc3)c(F)c2)cc2n1CCCN2` [Example 114, 8-((3,5-difluoro-4-(4-fluorophenoxy)benzyl)oxy)-3,4-dihydro-1H-pyrimido[1,6-a]pyrimidin-6(2H)-one]: the IC50 at Lp-PLA2 in human plasma was at most 100 nM; in assay [1] (setting [2]), at most 1 nM.

Regarding `O=c1nc(OCc2cc(F)c(Oc3cccc(F)c3)c(F)c2)cc2n1CCCN2` [Example 115, 8-((3,5-difluoro-4-(3-fluorophenoxy)benzyl)oxy)-3,4-dihydro-1H-pyrimido[1,6-a]pyrimidin-6(2H)-one], the IC50 on Lp-PLA2 in human plasma was at most 100 nM; in assay [1] (setting [2]) it was at most 1 nM.

Regarding `O=c1nc(OCc2ccc(Oc3cccc(F)c3)c(F)c2)cc2n1CCCN2` [Example 116, 8-((3-fluoro-4-(3-fluorophenoxy)benzyl)oxy)-3,4-dihydro-1H-pyrimido[1,6-a]pyrimidin-6(2H)-one], the values for the IC50 (at Lp-PLA2 in human plasma; in assay [1] (setting [2])) were at most 100 nM and at most 1 nM, respectively.

Turning to `O=c1nc(OCc2ccc(Oc3ccc(F)c(F)c3)c(F)c2)cc2n1CCCN2` [Example 117, 8-((4-(3,4-difluorophenoxy)-3-fluorobenzyl)oxy)-3,4-dihydro-1H-pyrimido[1,6-a]pyrimidin-6(2H)-one], the IC50 on Lp-PLA2 in human plasma is at most 100 nM; in assay [1] (setting [2]) it was at most 1 nM.

As for `O=c1nc(OCc2ccc(Oc3ccc(F)cc3)c(F)c2)cc2n1CCCN2` [Example 118, 8-((3-fluoro-4-(4-fluorophenoxy)benzyl)oxy)-3,4-dihydro-1H-pyrimido[1,6-a]pyrimidin-6(2H)-one], the values for the IC50 (on Lp-PLA2 in human plasma; in assay [1] (setting [2])) were at most 100 nM and at most 1 nM, respectively.

Consider `O=c1nc(OCc2ccc(Oc3ccc(F)c(F)c3)cc2)cc2n1CCCN2` [Example 119, 8-((4-(3,4-difluorophenoxy)benzyl)oxy)-3,4-dihydro-1H-pyrimido[1,6-a]pyrimidin-6(2H)-one], for which the IC50 at Lp-PLA2 in human plasma was at most 100 nM; in assay [1] (setting [2]), at most 1 nM.

Values taken from patent publication US20130030012A1, “COMPOUNDS” (Glaxo Group Limited, priority 2011, published 2013).
